What all share (assay): NCI-60 cell line screen, 48 h
Experiment [1] concerns RPMI-8226 leukemia.
Experiment [2] has as its system UO-31 renal.
The test system of experiment [3] is HCT-116 colon.
Experiment [4] relates to 786-0 renal.
Experiment [5] deals with HCT-15 colon.
For experiment [6], the system named is T-47D breast.
In experiment [7] the test system is SN12C renal.
Experiment [8] concerns NCI-H23 lung.
For experiment [9], the system named is BT-549 breast.
In experiment [10] the test system is SF-295 CNS.
Experiment [11] concerns SNB-75 CNS.
In experiment [12] the test system is MCF7 breast.
For experiment [13], the system named is UACC-62 melanoma.
The test system of experiment [14] is EKVX NSCLC.
For experiment [15], the system named is KM12 colon.
Experiment [16] has as its system M14 melanoma.
Experiment [17] deals with SK-MEL-5 melanoma.
The subject of experiment [18] is COLO 205 colon.
The test system of experiment [19] is HOP-92 NSCLC.

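Five concentrations, 48 hours, 96-well plates. The concentration for full growth arrest is given as TGI.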 Where only a bound is given, the exact number is not on record here.

For `OCCCCCCCCCCCOc1ccc(C2OCC3(CC=CCC3)CO2)cc1` (stereo not drawn), the TGI in experiment [1] was greater than 100 µM; in [2], 40.9 µM; in experiment [3], 29.3 µM; in experiment [4], 30.5 µM; in experiment [5], 32.3 µM; in experiment [6] it was 31 µM. The TGI in [7] worked out at 36.8 µM; in experiment [8], 31.6 µM; in [9] it was 30.9 µM; in [10], 34.7 µM; in experiment [11], 28.2 µM; in [12], 19.6 µM. Further, the TGI came to 32.8 µM in [13]; 23.8 µM in experiment [14]; 28.7 µM in [15]; 26 µM in [16]; 80.2 µM in experiment [17]; 46.8 µM in experiment [18]. The same compound came in with a TGI in [19] of 32.8 µM.

In the case of `CC(C)(C)OC(=O)NC(CS(=O)(=O)O)C(=O)O` (stereo not drawn), the TGI in [1], in experiment [2], in experiment [3], in experiment [4], in [5] and in experiment [6] was greater than 100 µM throughout. Moreover, the TGI in experiment [7], in experiment [8], in experiment [9], in experiment [10], in experiment [11] and in experiment [12] was greater than 100 µM in each case. Further, the TGI in experiment [13], in experiment [14], in [15], in [16], in experiment [17] and in [18] was greater than 100 µM in each case. For the same compound, the TGI in experiment [19] was greater than 100 µM.

With `Cc1cc2c(cc1C)C(=O)/C(=C/c1ccccc1C(=O)O)C2`, the TGI in experiment [1] is 75.2 µM; in experiment [2], greater than 100 µM; in experiment [3], greater than 100 µM; in experiment [4], greater than 100 µM; in [5], greater than 100 µM; in experiment [6], greater than 100 µM. Besides, the TGI in experiment [7] is greater than 100 µM; in experiment [8], 66.7 µM; in experiment [9], greater than 100 µM; in experiment [10], greater than 100 µM; in [11] it was greater than 100 µM; in experiment [12], greater than 100 µM. Also, the TGI in experiment [13] was greater than 100 µM; in experiment [14], greater than 100 µM; in experiment [15] it was greater than 100 µM; in experiment [16] it was greater than 100 µM; in experiment [17] it was greater than 100 µM; in experiment [18] it was 36.3 µM. The same compound gave a TGI in experiment [19] greater than 100 µM.

Take `O=c1c2ccccc2nc2sc(/N=C/C=C/c3ccccc3)nn12`: the TGI in experiment [1], in experiment [2], in experiment [3], in [4], in [5] and in experiment [6] was greater than 100 µM in each case. In addition, the TGI in experiment [7], in [8], in experiment [9], in experiment [10], in experiment [11] and in experiment [12] was greater than 100 µM in each case. The TGI in experiment [13], in experiment [14], in experiment [15], in experiment [16], in experiment [17] and in [18] was greater than 100 µM each time. This compound also came in with a TGI in experiment [19] greater than 100 µM.

Regarding `CC(=O)N(CCCCNC(=O)C(F)(F)F)CCCNC(=O)C(F)(F)F`, the TGI in experiment [1], in experiment [2], in experiment [3], in [4], in experiment [5] and in experiment [6] was greater than 100 µM in each case. In addition, the TGI in experiment [7], in experiment [8], in experiment [9], in experiment [10], in experiment [11] and in experiment [12] was greater than 100 µM each time. Besides, the TGI in experiment [13], in experiment [14], in experiment [15], in [16], in experiment [17] and in [18] was greater than 100 µM in each case. The compound also came in with a TGI in experiment [19] greater than 100 µM.

As to `CCc1ccc(/C=C/C(=O)C2CN(CC)CCC2(O)/C=C/c2ccc(CC)cc2)cc1` (stereo not drawn), the TGI stood at 5.24 µM in experiment [1]; 11.6 µM in experiment [2]; 3.25 µM in [3]; 3.22 µM in experiment [4]; 8.27 µM in [5]; 10.1 µM in [6]. For the same compound, the TGI in experiment [7] worked out at 14.1 µM; in [8] it was 11.5 µM; in experiment [9], 11.2 µM; in experiment [10], 8.9 µM; in experiment [11], 21.6 µM; in experiment [12] it was 7.34 µM. For the same compound, the TGI in experiment [13] came to 16.2 µM; in experiment [14], 17.4 µM; in experiment [15], 3.5 µM; in [16], 7.11 µM; in experiment [17], 11.2 µM; in experiment [18] it was 6.21 µM. In [19], this compound returned a TGI of 5.33 µM.

As for `O=C(O)c1nc2ccccc2nc1NCc1ccc(F)cc1`, the TGI in experiment [1] is greater than 100 µM; in [2] it was greater than 100 µM; in experiment [3], greater than 100 µM; in experiment [4], greater than 100 µM; in experiment [5], 42.8 µM; in experiment [6], greater than 100 µM. Further, the TGI in experiment [7], in experiment [8], in [9], in experiment [10], in [11] and in [12] was greater than 100 µM in each case. The TGI in experiment [13] is greater than 100 µM; in experiment [14], greater than 100 µM; in [15], greater than 100 µM; in experiment [16], greater than 100 µM; in experiment [17] it was greater than 100 µM; in experiment [18], 93.5 µM. Moreover, in [19], the TGI is greater than 100 µM.
